From PubChem BioAssay AID330 (DTP/NCI, 2004)
Values joined by “and” are separate entries in the source; they are usually repeats but may differ in a detail not shown here. Equal entries are not always repeated. Toxic doses and inconclusive results are not listed. Rule for the calls: active = survival T/C of 150% or more; inactive = T/C below 125% in these data.

System: P388 leukemia ip, CD2F1 mice, survival T/C
Assay: NCI In Vivo Anticancer Drug Screen. Data for tumor model P388 Leukemia (intraperitoneal) in CD2F1 (CDF1) mice
Details: endpoint: median survival time, higher = longer survival
In short: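 Mice carrying the transplanted tumor received test compound or vehicle. Survival was recorded in each group, and the value is the treated-group measurement divided by that of the vehicle-treated control group.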

[1] = dose: 6.25 mg/kg/injection, schedule: Q01DX009 (ip), vehicle: saline
[2] = dose: 25.0 mg/kg/injection, schedule: Q01DX009 (ip), vehicle: saline
[3] = dose: 50.0 mg/kg/injection, schedule: Q01DX009 (ip), vehicle: saline
[4] = dose: 50.0 mg/kg/injection, schedule: Q01DX005 (ip), vehicle: Klucel (hydroxypropylcellulose) (HPC)
[5] = dose: 100.0 mg/kg/injection, schedule: Q01DX005 (ip), vehicle: Klucel (hydroxypropylcellulose) (HPC)
[6] = dose: 200.0 mg/kg/injection, schedule: Q01DX005 (ip), vehicle: Klucel (hydroxypropylcellulose) (HPC)
[7] = dose: 25.0 mg/kg/injection, schedule: Q01DX009 (ip), vehicle: saline with Tween-80
[8] = dose: 50.0 mg/kg/injection, schedule: Q01DX009 (ip), vehicle: saline with Tween-80
[9] = dose: 60.0 mg/kg/injection, schedule: Q01DX005 (ip), vehicle: saline with Tween-80
[10] = dose: 120.0 mg/kg/injection, schedule: Q01DX005 (ip), vehicle: saline with Tween-80
[11] = dose: 240.0 mg/kg/injection, schedule: Q01DX005 (ip), vehicle: saline with Tween-80
[12] = dose: 100.0 mg/kg/injection, schedule: Q01DX009 (ip), vehicle: saline with Tween-80
[13] = dose: 200.0 mg/kg/injection, schedule: Q01DX009 (ip), vehicle: saline with Tween-80
[14] = dose: 25.0 mg/kg/injection, schedule: Q01DX001 (ip), vehicle: saline with Tween-80
[15] = dose: 50.0 mg/kg/injection, schedule: Q01DX001 (ip), vehicle: saline with Tween-80
[16] = dose: 100.0 mg/kg/injection, schedule: Q01DX001 (ip), vehicle: saline with Tween-80

Measured: T/C

Cc1cc(Cl)nc(Cl)c1C#N
inactive: dose: 18.75 mg/kg/injection, schedule: Q04DX003 (ip), vehicle: saline 98 % of control | dose: 37.5 mg/kg/injection, schedule: Q04DX003 (ip), vehicle: saline 103 % of control | dose: 75.0 mg/kg/injection, schedule: Q04DX003 (ip), vehicle: saline 103 % of control | dose: 150.0 mg/kg/injection, schedule: Q04DX003 (ip), vehicle: saline 99 % of control

O=C1C(Cl)=C(Nc2cccc3cc4ccccc4nc23)C(=O)c2ccccc21
inactive: dose: 5.0 mg/kg/injection, schedule: Q01DX009 (ip), vehicle: saline 104 % of control and 112 % of control | dose: 10.0 mg/kg/injection, schedule: Q01DX009 (ip), vehicle: saline 113 % of control and 114 % of control | dose: 20.0 mg/kg/injection, schedule: Q01DX009 (ip), vehicle: saline 104 % of control

N#Cc1nccnc1Cl
inactive: dose: 25.0 mg/kg/injection, schedule: Q01DX009 (ip), vehicle: other 95 % of control | dose: 25.0 mg/kg/injection, schedule: Q04DX003 (ip), vehicle: other 100 % of control | dose: 50.0 mg/kg/injection, schedule: Q01DX009 (ip), vehicle: other 100 % of control | dose: 50.0 mg/kg/injection, schedule: Q04DX003 (ip), vehicle: other 100 % of control | dose: 100.0 mg/kg/injection, schedule: Q01DX009 (ip), vehicle: other 100 % of control | dose: 100.0 mg/kg/injection, schedule: Q04DX003 (ip), vehicle: other 100 % of control

C[N+]1(CCC(=O)c2ccccc2)CCOCC1
inactive: [1] 100 % of control | dose: 12.5 mg/kg/injection, schedule: Q01DX009 (ip), vehicle: saline 103 % of control | [2] 100 % of control | [3] 100 % of control and 97 % of control | dose: 200.0 mg/kg/injection, schedule: Q01DX009 (ip), vehicle: saline 96 % of control

NC(=O)Nc1ccc(Cc2ccc(NC(N)=O)cc2)cc1
inactive: dose: 50.0 mg/kg/injection, schedule: Q01DX009 (ip), vehicle: Klucel (hydroxypropylcellulose) (HPC) 94 % of control | dose: 100.0 mg/kg/injection, schedule: Q01DX009 (ip), vehicle: Klucel (hydroxypropylcellulose) (HPC) 94 % of control | dose: 200.0 mg/kg/injection, schedule: Q01DX009 (ip), vehicle: Klucel (hydroxypropylcellulose) (HPC) 91 % of control

Cc1nc2ncn(-c3ccccc3)c2c(=O)n1Cc1ccccc1
inactive: [4] 105 % of control | [5] 105 % of control | [6] 105 % of control

NC(=O)c1ccc(C(N)=O)cc1
inactive: dose: 12.5 mg/kg/injection, schedule: Q01DX009 (ip), vehicle: saline with Tween-80 100 % of control | [7] 100 % of control | [8] 95 % of control

COC(=O)C1CC(C(=O)c2ccccc2)N2C=CC=C(C#N)C12 (stereo unspecified)
inactive: dose: 4.38 mg/kg/injection, schedule: Q01DX005 (ip), vehicle: Klucel (hydroxypropylcellulose) (HPC) 101 % of control | dose: 8.75 mg/kg/injection, schedule: Q01DX005 (ip), vehicle: Klucel (hydroxypropylcellulose) (HPC) 91 % of control | dose: 17.5 mg/kg/injection, schedule: Q01DX005 (ip), vehicle: Klucel (hydroxypropylcellulose) (HPC) 101 % of control

c1nnc(NC(Nc2nncs2)C2CCCCC2)s1
inactive: dose: 30.0 mg/kg/injection, schedule: Q01DX005 (ip), vehicle: saline with Tween-80 98 % of control | [9] 95 % of control | [10] 90 % of control and 92 % of control | [11] 121 % of control

Cc1ccc(C)c(NC(=O)CCC(=O)C(C#N)c2cccc3ccccc23)c1 (stereo unspecified)
inactive: [9] 104 % of control | [10] 104 % of control | [11] 105 % of control

O=C(/C(=C(/[O-])C(F)(F)F)[n+]1cccc2ccccc21)C(F)(F)F
inactive: [9] 104 % of control | [10] 91 % of control | [11] 99 % of control

COc1ccc2c(c1)-c1c3c(cc4ccnc(c14)C2=O)OCO3
inactive: dose: 2.5 mg/kg/injection, schedule: Q01DX009 (ip), vehicle: saline with Tween-80 107 % of control | dose: 5.0 mg/kg/injection, schedule: Q01DX009 (ip), vehicle: saline with Tween-80 114 % of control | dose: 10.0 mg/kg/injection, schedule: Q01DX009 (ip), vehicle: saline with Tween-80 122 % of control

CCCCCN(CCCCC)CCCCC
inactive: [7] 86 % of control | [8] 98 % of control | [12] 101 % of control | [13] 88 % of control

CC(C)C(=O)CC(=O)CCC(=O)Nc1cccc(Cl)c1
inactive: [9] 105 % of control | [10] 102 % of control | [11] 107 % of control

Cc1oc2c(c(C)nn2-c2ccccc2)c(=O)c1Cl
inactive: [4] 92 % of control | [5] 106 % of control | [6] 108 % of control

CCCCC[C@@H]1CC=CC(NC(=O)OCc2ccccc2)C1C=O (stereo partly specified)
inactive: [9] 100 % of control | [10] 103 % of control | [11] 105 % of control

CC(C)NCc1ccccc1Sc1ccccc1CNC(C)C
inactive: [14] 99 % of control | dose: 25.0 mg/kg/injection, schedule: Q04DX002 (ip), vehicle: saline 103 % of control | [15] 98 % of control | dose: 50.0 mg/kg/injection, schedule: Q04DX002 (ip), vehicle: saline 103 % of control | [16] 98 % of control | dose: 100.0 mg/kg/injection, schedule: Q04DX002 (ip), vehicle: saline 103 % of control

c1ccc2c(c1)N=Nc1ccccc1OCCOCCOCCO2
inactive: [14] 103 % of control | [15] 102 % of control | [16] 92 % of control

CC1=C(C(=O)Nc2cc(C)ccc2C)C(c2cccc([N+](=O)[O-])c2)C(C(=O)Nc2cc(C)ccc2C)=C(C)N1
inactive: dose: 60.0 mg/kg/injection, schedule: Q01DX005 (ip), vehicle: Klucel (hydroxypropylcellulose) (HPC) 88 % of control | dose: 120.0 mg/kg/injection, schedule: Q01DX005 (ip), vehicle: Klucel (hydroxypropylcellulose) (HPC) 89 % of control

C=C1CC[N+]2(CCCC)CCCC12 (stereo unspecified)
inactive: dose: 7.5 mg/kg/injection, schedule: Q01DX005 (ip), vehicle: saline 104 % of control | dose: 15.0 mg/kg/injection, schedule: Q01DX005 (ip), vehicle: saline 98 % of control | dose: 30.0 mg/kg/injection, schedule: Q01DX005 (ip), vehicle: saline 100 % of control

NC(N)=O.NC(N)=O.NC(N)=O.NC(N)=O.NC(N)=O.NC(N)=O.[Fe+3].[O-][Cl+3]([O-])([O-])O
inactive: [8] 96 % of control | [12] 91 % of control | [13] 102 % of control

CCOCc1ccc(C(=O)NCCCc2c(-c3ccccc3)nc(N)[nH]c2=O)cc1
inactive: dose: 3.75 mg/kg/injection, schedule: Q01DX005 (ip), vehicle: Klucel (hydroxypropylcellulose) (HPC) 100 % of control and 103 % of control and 94 % of control | dose: 7.5 mg/kg/injection, schedule: Q01DX005 (ip), vehicle: Klucel (hydroxypropylcellulose) (HPC) 93 % of control and 97 % of control | dose: 15.0 mg/kg/injection, schedule: Q01DX005 (ip), vehicle: Klucel (hydroxypropylcellulose) (HPC) 89 % of control and 92 % of control and 97 % of control | dose: 240.0 mg/kg/injection, schedule: Q01DX005 (ip), vehicle: Klucel (hydroxypropylcellulose) (HPC) 86 % of control

CCC(c1ccc(OC)cc1)C(NC(=S)NCc1ccccc1)c1ccc(OC)cc1 (stereo unspecified)
inactive: dose: 100.0 mg/kg/injection, schedule: Q04DX002 (ip), vehicle: saline with Tween-80 94 % of control | dose: 200.0 mg/kg/injection, schedule: Q04DX002 (ip), vehicle: saline with Tween-80 91 % of control

CCCCCCCCCCCCCCCCOc1ccc(S(=O)(=O)N/N=c2/sc3ccc(S(=O)(=O)O)cc3n2C)cc1C(=O)O
inactive: [2] 99 % of control | [3] 100 % of control | [12] 102 % of control | dose: 100.0 mg/kg/injection, schedule: Q01DX009 (ip), vehicle: saline 86 % of control

Cc1cc(N/N=C/c2ccccn2)nc2c(C)cccc12
inactive: dose: 50.0 mg/kg/injection, schedule: Q01DX005 (ip), vehicle: saline with Tween-80 90 % of control | dose: 100.0 mg/kg/injection, schedule: Q01DX005 (ip), vehicle: saline with Tween-80 91 % of control | dose: 200.0 mg/kg/injection, schedule: Q01DX005 (ip), vehicle: saline with Tween-80 100 % of control

CCCCCCCCCCCCCCCC[N+](C)(CCO)Cc1cnc[nH]1 (stereo unspecified)
inactive: dose: 1.56 mg/kg/injection, schedule: Q01DX009 (ip), vehicle: saline 110 % of control | dose: 3.12 mg/kg/injection, schedule: Q01DX009 (ip), vehicle: saline 111 % of control | [1] 118 % of control

N/N=C/c1cccn1-c1ccccc1Cl
inactive: [9] 93 % of control | [10] 92 % of control
